Assay results from publication PMC4718634, “Murine GPRC6A Mediates Cellular Responses to L-Amino Acids, but Not Osteocalcin Variants” (PLoS ONE, 2016).
Bridge positions count the residues as written; N and C are the ends. Ends that are not written are not given here.

What was measured:
[1] = tested on: hC6A; conditions: ref [9] (supplement list); cited from earlier work
Description: (§1) Supplement pone.0146846.s004.docx, table 1 | column: Functional assay

[2] = tested on: TC6; conditions: endogenous; ref [11] (supplement list); cited from earlier work
Description: as §1

[3] = tested on: Unknown species GPRC6A; conditions: ref [11] (supplement list); cited from earlier work
Description: as §1

[4] = tested on: mC6A; conditions: ref [18] (supplement list); cited from earlier work
Description: as §1

[5] = tested on: PC-3 cells; conditions: endogenous; ref [18] (supplement list); cited from earlier work
Description: as §1

[6] = tested on: 22RV1 / PC-3; conditions: endogenous; ref [9] (supplement list); cited from earlier work
Description: as §1

[7] = tested on: mouse pancreatic islets; test: Insulin release from mouse pancreatic islets; type: cell-based; conditions: L-arginine 20 mM; *P < 0.05 vs Vehicle; n = 2; S3 Fig B
Procedure: Islets were collagenase-isolated from mice (10 x C57Bl/6; 12–13 weeks; Charles River) and incubated overnight in RPMI (with 10% FBS (v/v), 10 mM HEPES, 100 U/ml penicillin, 100 μg/ml streptomycin, sodium pyruvate and 10 mM glucose) at 37°C in 5% CO2. Islets were seeded into a 96-well plate (4 / well) in Kreb’s buffer containing 2.8 mM glucose and washed twice with the same buffer. 200 μl test drugs were added in Kreb’s buffer with the required concentration of glucose and incubated at 37°C in 5% CO2 for 90 min. The plate was centrifuged for 10 s at 200 g, supernatant recovered and insulin levels detected as described above. This protocol was approved by the IDRS (Institut de Recherches Servier) Institutional Animal Care and Use Committee.
(§2) Concentration-response data were analysed using a three or four parameter logistic function (Motulsky & Christopoulos, 2004) to generate estimates of agonist potency (LogEC50). Data for all HEK293 assays represent the mean ± SEM of at least three independent experiments (except cell impedance, n = 2). For GLP-1 release, the data represent mean ± SEM of three to five independent experiments (except for OCN, wash; n = 2). For insulin release assays, data represent the mean ± SEM of three independent experiments (except for islet studies; n = 2). Insulin release data were normalised to the response to vehicle in either low or high [glucose]. Statistical analysis for GLP-1 release data were performed by one-way ANOVA, followed by Sidak’s multiple comparisons test (treating wash / no wash datasets separately). Statistical analyses for insulin release data were performed by two-way ANOVA (with [glucose] and drug treatment as group variables), followed by Sidak’s multiple comparisons test. Where only high [glucose] groups were evaluated, statistical analysis was by one-way ANOVA followed by Sidak’s multiple comparisons test.

[8] = target: T1, mGPRC6A (mouse GPRC6A) (Mus musculus, UniProt Q8K4Z6); test: Ca^2+i mobilisation, FlpIn-TREx-HEK293-mGPRC6A cells; type: cell-based
T1 sequence (Q8K4Z6 21-928): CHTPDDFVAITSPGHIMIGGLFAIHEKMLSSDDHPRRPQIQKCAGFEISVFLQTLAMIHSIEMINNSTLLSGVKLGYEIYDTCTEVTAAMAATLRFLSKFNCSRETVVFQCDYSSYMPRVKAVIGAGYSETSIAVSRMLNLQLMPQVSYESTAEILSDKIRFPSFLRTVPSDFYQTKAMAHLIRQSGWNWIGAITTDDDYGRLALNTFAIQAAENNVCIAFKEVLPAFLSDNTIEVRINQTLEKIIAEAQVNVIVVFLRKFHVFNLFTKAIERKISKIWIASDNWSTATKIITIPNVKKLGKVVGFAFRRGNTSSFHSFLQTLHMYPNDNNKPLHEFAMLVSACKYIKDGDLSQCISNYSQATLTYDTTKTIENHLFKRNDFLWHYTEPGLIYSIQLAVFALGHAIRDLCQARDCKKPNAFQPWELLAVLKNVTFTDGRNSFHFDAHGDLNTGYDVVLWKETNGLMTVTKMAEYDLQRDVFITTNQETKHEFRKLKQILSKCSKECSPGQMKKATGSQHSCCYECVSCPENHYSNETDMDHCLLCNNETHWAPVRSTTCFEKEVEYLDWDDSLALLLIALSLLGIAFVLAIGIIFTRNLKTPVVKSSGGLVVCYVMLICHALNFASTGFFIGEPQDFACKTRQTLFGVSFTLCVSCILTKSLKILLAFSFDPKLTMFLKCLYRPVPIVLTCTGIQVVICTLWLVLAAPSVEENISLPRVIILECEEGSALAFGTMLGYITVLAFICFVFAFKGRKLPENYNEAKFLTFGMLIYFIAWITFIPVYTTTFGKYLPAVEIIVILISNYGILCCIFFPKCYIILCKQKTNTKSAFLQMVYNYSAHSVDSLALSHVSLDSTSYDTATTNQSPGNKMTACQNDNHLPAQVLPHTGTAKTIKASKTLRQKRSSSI
Procedure: pcDNA 5/FRT/TO constructs were isogenically integrated into a FlpIn-TREx-HEK293 cell line (Life Technologies). FlpIn-TREx-HEK293-mGPRC6A and FlpIn-TREx-HEK293-hGPRC6A cells were then selected using 600 μg/ml hygromycin and 5 μg/ml blasticidin and grown in culture medium consisting of Dulbecco’s Modified Eagle Medium (DMEM), supplemented with 10% (v/v) foetal bovine serum (FBS) at 37°C in 5% CO2 and were sub-cultured in a 1:3 ratio every 3–4 days. Cells were cultured overnight in the presence of 1 μg/ml tetracycline to induce GPRC6A expression. […] 48 h after transfection, cells were selected using 3 μg/ml puromycin and grown as above.
FlpIn-TREx-HEK293-mGPRC6A cells were seeded into T75 flasks at 70% confluency. Cells were transfected with 15μg of plasmid DNA (Gαq or GαqG66D) with Lipofectamine LTX according to manufacturer's instructions, then incubated for 24h at 37°C in 5% CO2. Cells were plated into 96-well plates (10^5 cells/well) and equilibrated at 37°C in 5% CO2 for 4-6h to adhere, whereupon cells were serum starved overnight at 37°C in 5% CO2. For the assay, cells were washed twice in Ca^2+ assay buffer (150 mM NaCl, 2.6 mM KCl, 1.2 mM MgCl2, 10 mM dextrose, 10 mM HEPES, 2.2 mM CaCl2, 0.5% (w/v) BSA and 4 mM probenecid; pH 7.4). Buffer was then replaced with Ca^2+ assay buffer containing 1μM Fluo-4-AM and incubated for 1h at 37°C in 5% CO2. Cells were washed twice more and replaced with Ca^2+ assay buffer at 37°C. Serial dilutions of test agonists were added by injection in a Flexstation™ (Molecular Devices) and fluorescence was measured at 485nm excitation and 520nm emission wavelengths. Agonist responses were normalised to the peak of response to 100 μM ATP.
as §2, with “Data” for “Concentration-response data were analysed using a three or four parameter logistic function (Motulsky & Christopoulos, 2004) to generate estimates of agonist potency (LogEC50). Data”

[9] = tested on: GPRC6A; design: method as in PMID 15576628; conditions: chimera with goldfish 5.24 receptor and full length GPRC6A; ref [1]; cited from earlier work
[10] = tested on: STC-1 cell line; conditions: ref [22]; cited from earlier work
Description: Given the range of OCN variants profiled, we propose that species and/or carboxylation status is unlikely to be a cause of the lack of activity in our assays. Other potential explanations are that the species of GPRC6A is critical or that HEK293 cells lack the necessary scaffolding and/or signalling proteins found in cells endogenously expressing GPRC6A. Unfortunately, human GPRC6A was not expressed at the cell surface in our cells, precluding a study of its pharmacology. However, we identified a range of immortalised murine entero-endocrine and pancreatic β-cell lines that express Gprc6a mRNA ...

[11] = tested on: GPRC6A; conditions: HEK293 cells recombinantly expressing GPRC6A; ref [8], [10]–[12]; cited from earlier work
Description: Additional interest in GPRC6A has emerged due to several studies reporting that it mediates the metabolic and endocrine effects of the de-carboxylated form of the osteoblast-derived peptide, osteocalcin (OCN).

In the case of `N=C(N)NCCC[C@H](N)C(=O)O` [L-arginine], the pERK1/2 response [1] is given as “pERK1/2 – response to Ca^2+, ZnCl2, OCN, Arginine, Testosterone-BSA”, the “pERK1/2, pPKD1 response” value [2] is given as “pERK1/2, pPKD1 – response to OCN, L-Arg” and the pERK1/2 response [3] is given as “pERK1/2 - response to Ca^2+, L-Arg, OCN”. For the same molecule, the cAMP response [4] was “cAMP – response to Testosterone, L-Arg pERK1/2 – response to Testosterone”, the pERK1/2 response [5] was “pERK1/2 – response to Testosterone, L-Arg” and the “PSA, Runx2 expression response” value [6] was “pERK1/2 – response to Ca^2+, ZnCl2, OCN, Arginine, Testosterone-BSA Proliferation – response to Ca^2+, OCN PSA, Runx2 expression – response to OCN, Arg, R1881 Chemotaxis (22RV1) – response to Ca^2+, OCN”. The pERK1/2 response [6] was “pERK1/2 – response to Ca^2+, ZnCl2, OCN, Arginine, Testosterone-BSA Proliferation – response to Ca^2+, OCN PSA, Runx2 expression – response to OCN, Arg, R1881 Chemotaxis (22RV1) – response to Ca^2+, OCN”, the “glucose-sensitive insulin secretion, L-arginine” value [7] was “significantly increased GSIS” and the EC50 [8] was 15.8 µM. For the same molecule, the “potency at murine GPRC6A (calcium and inositol phosphate, words)” value ([8]; calcium mobilisation and inositol phosphate accumulation, Discussion) was “most potent agonists”, the “rank order of potency, Ca^2+ mobilisation” value ([8]; co-expressing GαqG66D, Fig 1D) was “L-ornithine > L-arginine = L-lysine” and the “agonist response of GPRC6A” value [9] was “mediates responses to L-amino acids”.

In the case of “de-carboxylated OCN: de-carboxylated form of the osteoblast-derived peptide, osteocalcin (YLYQWLGAPVPYPDPLEPRREVCELNPDCDELADHIGFQEAYRRFYGPV; disulfide 23-29 (inferred); not fully specified; printed as YLYQWLGAPVPYPDPLEPRREVCELNPDCDELADHIGFQEAYRRFYGPV-NH2/-COOH; ends not checked; UniProt P02818 52-100, looked up)”, the GLP-1 release [10] is given as “evoke GLP-1 release”, the ERK1/2 phosphorylation [11] is given as “can stimulate cAMP accumulation or ERK1/2 phosphorylation” and the cAMP accumulation [11] is given as “can stimulate cAMP accumulation or ERK1/2 phosphorylation”.
